Legend:
Assay in all cases: KINOMEscan competition binding
Details in all cases: compound 10.0 µM; call rule not given here
[1] = target: CSNK2A2 (human) (UniProt P19784)
[2] = target: DAPK3 (human) (UniProt O43293)
[3] = target: EPHA3 (human) (UniProt P29320)
[4] = target: MAPK12 (human) (UniProt P53778)
[5] = target: TNK1 (human) (UniProt Q13470)
[6] = target: STK17A (human) (UniProt Q9UEE5)
[7] = target: TLK1 (human) (UniProt Q9UKI8)
[8] = test system: EIF2AK4 KD2 (human), Q9P2K8 [S808G]
[9] = target: STK11 (human) (UniProt Q15831)
Sequence of STK11 (human) (Q15831 whole entry, looked up): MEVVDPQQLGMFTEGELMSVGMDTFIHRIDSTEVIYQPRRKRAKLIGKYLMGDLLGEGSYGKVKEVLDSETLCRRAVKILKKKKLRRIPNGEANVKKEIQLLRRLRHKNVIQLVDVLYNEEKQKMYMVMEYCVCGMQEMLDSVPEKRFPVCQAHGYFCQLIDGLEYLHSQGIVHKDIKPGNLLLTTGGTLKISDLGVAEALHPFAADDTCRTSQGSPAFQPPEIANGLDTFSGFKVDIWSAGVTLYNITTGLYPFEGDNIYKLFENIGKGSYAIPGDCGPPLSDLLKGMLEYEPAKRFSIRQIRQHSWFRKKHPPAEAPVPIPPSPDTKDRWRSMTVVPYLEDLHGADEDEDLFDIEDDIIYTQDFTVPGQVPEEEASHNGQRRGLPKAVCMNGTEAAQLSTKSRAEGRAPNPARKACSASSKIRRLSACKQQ

[10] = target: CSNK2A1 (human) (UniProt P68400)
[11] = target: YES1 (human) (UniProt P07947)
[12] = target: ITK (human) (UniProt Q08881)
[13] = target: BMP2K (human) (UniProt Q9NSY1)
[14] = target: MAP4K1 (human) (UniProt Q92918)
Sequence of MAP4K1 (human) (Q92918 whole entry, looked up): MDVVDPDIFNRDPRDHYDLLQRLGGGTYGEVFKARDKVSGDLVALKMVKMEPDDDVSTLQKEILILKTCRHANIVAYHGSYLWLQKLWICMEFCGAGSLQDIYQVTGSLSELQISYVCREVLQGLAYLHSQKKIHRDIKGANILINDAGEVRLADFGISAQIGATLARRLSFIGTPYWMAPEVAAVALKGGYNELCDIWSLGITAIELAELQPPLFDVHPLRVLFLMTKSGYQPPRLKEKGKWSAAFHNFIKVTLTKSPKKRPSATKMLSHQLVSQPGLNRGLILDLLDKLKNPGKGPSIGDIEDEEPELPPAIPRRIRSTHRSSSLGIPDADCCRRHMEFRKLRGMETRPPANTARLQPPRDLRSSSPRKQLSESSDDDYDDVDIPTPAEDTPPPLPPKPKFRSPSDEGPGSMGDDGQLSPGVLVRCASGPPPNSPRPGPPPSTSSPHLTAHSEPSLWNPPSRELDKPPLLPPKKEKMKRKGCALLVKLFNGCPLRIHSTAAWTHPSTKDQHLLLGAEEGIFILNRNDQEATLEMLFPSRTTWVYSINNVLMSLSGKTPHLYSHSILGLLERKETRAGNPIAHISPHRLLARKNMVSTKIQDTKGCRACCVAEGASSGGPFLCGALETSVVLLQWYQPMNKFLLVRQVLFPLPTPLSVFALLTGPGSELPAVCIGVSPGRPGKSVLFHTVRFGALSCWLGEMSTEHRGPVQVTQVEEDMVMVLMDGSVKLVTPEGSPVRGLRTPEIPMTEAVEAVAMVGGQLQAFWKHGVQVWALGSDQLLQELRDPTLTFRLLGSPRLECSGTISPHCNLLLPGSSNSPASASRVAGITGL

[15] = target: MAP3K11 (human) (UniProt Q16584)
[16] = target: SRPK1 (human) (UniProt Q96SB4)
Sequence of SRPK1 (human) (Q96SB4 whole entry, looked up): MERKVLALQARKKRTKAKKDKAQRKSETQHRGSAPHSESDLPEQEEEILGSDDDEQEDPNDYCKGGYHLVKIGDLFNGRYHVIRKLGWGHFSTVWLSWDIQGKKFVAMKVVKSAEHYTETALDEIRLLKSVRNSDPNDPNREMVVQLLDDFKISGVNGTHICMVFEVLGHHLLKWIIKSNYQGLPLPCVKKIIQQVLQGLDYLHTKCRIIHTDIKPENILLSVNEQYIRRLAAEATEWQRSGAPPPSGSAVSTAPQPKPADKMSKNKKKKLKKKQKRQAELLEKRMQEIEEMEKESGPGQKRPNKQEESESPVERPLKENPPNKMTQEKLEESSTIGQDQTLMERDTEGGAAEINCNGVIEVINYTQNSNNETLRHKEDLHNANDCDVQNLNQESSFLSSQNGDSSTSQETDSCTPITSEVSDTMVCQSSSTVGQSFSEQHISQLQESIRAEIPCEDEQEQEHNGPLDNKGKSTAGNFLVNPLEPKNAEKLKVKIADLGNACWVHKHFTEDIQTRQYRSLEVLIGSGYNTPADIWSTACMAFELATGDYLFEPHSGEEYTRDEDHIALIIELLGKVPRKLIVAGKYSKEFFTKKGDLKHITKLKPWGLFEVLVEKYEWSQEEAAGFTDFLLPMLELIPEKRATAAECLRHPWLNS

[17] = target: KIT (human) (UniProt P10721)
Sequence of KIT (human) (P10721 whole entry, looked up): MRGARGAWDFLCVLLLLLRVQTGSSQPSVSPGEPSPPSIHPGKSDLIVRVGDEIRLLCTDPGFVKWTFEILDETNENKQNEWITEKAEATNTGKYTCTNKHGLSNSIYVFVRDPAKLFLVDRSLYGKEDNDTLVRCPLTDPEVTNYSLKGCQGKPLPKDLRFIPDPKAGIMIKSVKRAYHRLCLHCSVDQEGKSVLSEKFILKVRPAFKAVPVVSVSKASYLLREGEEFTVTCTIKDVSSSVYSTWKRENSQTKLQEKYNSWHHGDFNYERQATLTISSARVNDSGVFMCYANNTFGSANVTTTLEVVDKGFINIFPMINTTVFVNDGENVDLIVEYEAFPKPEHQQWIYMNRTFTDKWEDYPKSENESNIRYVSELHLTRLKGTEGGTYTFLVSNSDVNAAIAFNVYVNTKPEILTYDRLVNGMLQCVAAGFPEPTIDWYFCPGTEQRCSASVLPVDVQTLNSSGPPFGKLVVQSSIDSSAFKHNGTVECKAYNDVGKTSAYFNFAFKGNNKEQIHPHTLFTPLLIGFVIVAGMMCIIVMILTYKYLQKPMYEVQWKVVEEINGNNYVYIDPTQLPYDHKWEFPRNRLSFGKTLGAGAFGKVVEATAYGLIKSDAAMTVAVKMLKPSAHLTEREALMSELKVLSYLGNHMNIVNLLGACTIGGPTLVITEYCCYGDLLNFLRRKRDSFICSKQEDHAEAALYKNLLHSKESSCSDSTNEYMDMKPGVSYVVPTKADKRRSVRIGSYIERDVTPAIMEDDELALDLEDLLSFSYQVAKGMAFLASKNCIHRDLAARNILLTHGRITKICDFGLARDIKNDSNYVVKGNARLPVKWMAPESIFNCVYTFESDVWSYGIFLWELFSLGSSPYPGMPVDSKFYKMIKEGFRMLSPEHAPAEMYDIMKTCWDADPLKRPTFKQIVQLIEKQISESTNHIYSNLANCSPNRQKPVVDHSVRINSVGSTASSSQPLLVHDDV

[18] = target: ULK3 (human) (UniProt Q6PHR2)
Sequence of ULK3 (human) (Q6PHR2 whole entry, looked up): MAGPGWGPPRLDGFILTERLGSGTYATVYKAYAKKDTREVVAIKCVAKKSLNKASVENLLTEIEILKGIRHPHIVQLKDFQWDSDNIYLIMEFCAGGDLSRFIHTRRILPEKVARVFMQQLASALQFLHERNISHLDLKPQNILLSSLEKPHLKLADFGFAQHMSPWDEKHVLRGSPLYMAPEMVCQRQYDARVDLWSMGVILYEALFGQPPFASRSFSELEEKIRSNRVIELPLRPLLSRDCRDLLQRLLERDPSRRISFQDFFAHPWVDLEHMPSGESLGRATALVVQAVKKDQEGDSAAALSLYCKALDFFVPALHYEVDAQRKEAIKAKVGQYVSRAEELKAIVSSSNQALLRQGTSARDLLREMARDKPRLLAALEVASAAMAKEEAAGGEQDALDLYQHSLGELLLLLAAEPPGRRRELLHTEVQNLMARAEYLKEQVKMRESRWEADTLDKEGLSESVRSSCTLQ

[19] = target: CSNK1D (human) (UniProt P48730)
[20] = target: MYLK2 (human) (UniProt Q9H1R3)
[21] = target: PDGFRB (human) (UniProt P09619)

Sequence of TLK1 (human) (Q9UKI8 whole entry, looked up): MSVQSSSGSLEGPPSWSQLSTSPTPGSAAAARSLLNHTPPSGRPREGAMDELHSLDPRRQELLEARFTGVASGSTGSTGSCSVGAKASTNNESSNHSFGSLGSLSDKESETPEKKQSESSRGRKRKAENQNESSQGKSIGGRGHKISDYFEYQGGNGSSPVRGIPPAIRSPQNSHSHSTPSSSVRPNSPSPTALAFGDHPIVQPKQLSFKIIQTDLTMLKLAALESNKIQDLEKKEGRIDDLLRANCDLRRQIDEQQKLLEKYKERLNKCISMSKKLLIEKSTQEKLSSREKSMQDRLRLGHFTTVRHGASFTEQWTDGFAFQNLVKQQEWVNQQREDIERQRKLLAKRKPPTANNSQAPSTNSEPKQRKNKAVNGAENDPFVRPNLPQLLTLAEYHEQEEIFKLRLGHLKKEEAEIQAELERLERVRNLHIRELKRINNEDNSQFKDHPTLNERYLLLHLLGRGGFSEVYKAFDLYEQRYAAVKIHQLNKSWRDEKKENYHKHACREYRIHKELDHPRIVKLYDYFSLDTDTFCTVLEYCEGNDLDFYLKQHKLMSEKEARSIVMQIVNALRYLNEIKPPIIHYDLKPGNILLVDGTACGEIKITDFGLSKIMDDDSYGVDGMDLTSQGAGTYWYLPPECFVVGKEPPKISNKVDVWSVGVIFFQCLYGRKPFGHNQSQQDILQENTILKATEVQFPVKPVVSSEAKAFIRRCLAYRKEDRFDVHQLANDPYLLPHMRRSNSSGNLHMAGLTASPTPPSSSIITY
Sequence of DAPK3 (human) (O43293 whole entry, looked up): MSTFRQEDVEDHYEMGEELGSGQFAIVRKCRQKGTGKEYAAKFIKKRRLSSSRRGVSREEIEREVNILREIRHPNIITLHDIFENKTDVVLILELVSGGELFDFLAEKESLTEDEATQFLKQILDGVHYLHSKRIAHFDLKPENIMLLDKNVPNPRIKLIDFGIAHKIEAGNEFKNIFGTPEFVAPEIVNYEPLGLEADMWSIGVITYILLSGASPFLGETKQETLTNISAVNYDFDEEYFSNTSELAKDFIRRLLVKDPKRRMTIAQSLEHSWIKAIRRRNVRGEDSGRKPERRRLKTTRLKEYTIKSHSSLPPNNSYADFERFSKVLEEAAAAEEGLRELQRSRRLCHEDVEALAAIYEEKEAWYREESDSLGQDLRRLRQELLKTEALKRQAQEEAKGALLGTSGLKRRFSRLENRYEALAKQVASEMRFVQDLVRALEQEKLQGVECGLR
Sequence of CSNK2A2 (human) (P19784 whole entry, looked up): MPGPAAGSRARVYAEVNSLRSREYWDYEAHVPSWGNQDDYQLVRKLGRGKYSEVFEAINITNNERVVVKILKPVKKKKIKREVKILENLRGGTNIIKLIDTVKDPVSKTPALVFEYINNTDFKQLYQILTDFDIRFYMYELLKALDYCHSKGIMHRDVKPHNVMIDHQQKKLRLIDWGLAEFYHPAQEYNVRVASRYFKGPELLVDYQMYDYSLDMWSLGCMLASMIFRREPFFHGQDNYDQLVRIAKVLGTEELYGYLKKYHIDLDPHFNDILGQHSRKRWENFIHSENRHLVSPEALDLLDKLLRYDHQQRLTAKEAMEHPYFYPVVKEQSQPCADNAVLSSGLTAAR

kinase still bound, per cent of control [1]: no effect (inactive)
kinase still bound, per cent of control [2]: no effect (inactive)
kinase still bound, per cent of control [3]: no effect (inactive)
kinase still bound, per cent of control [4]: no effect (inactive)
kinase still bound, per cent of control [5]: no effect (inactive)
kinase still bound, per cent of control [6]: no effect (inactive)
kinase still bound, per cent of control [7]: no effect (inactive)
kinase still bound, per cent of control [8]: no effect (inactive)
kinase still bound, per cent of control [9]: no effect (inactive)
kinase still bound, per cent of control [10]: no effect (inactive)
kinase still bound, per cent of control [11]: 0%
kinase still bound, per cent of control [12]: no effect (inactive)
kinase still bound, per cent of control [13]: no effect (inactive)
kinase still bound, per cent of control [14]: 0%
kinase still bound, per cent of control [15]: no effect (inactive)
kinase still bound, per cent of control [16]: no effect (inactive)
kinase still bound, per cent of control [17]: 0%
kinase still bound, per cent of control [18]: no effect (inactive)
kinase still bound, per cent of control [19]: 0%
kinase still bound, per cent of control [20]: no effect (inactive)
kinase still bound, per cent of control [21]: 0%
SMILES: Nc1ncnc2c1c(-c1cccc(O)c1)cn2C1CCNCC1

Reference: the kinase profiling compilation of Christmann-Franck et al. (2016)
